IC50 and Activity data for two compounds are collected here from ChEMBL document CHEMBL5143640, “Diverse Sesquiterpenoids and Polyacetylenes from Atractylodes lancea and Their Anti-Osteoclastogenesis Activity” (J Nat Prod, 2022).

Data set [1] is described as follows: Anti-osteoclastogensis activity C57BL/6 mouse bone marrow macrophages assessed as inhibition of RANKL-induced osteoclastogenesis and measured after 5 days in presence of M-CSF by TRAP staining based assay. It counts as functional, cell-based. The following applies: bmdm.
In data set [2] the test system is BMDM. The data set can be described thus: Anti-osteoclastogensis activity C57BL/6 mouse bone marrow macrophages assessed as inhibition of RANKL-induced osteoclastogenesis by measuring osteoclasts size at 1 to 10 uM and measured after 5 days in presence of M-CSF by TRAP staining based assay. It counts as functional, cell-based. The following applies: dose 1-10 µM, time 5.0 day, DDE = dose-dependent effect.

Data set [3] deals with BMDM. Put plainly: Anti-osteoclastogensis activity C57BL/6 mouse bone marrow macrophages assessed as inhibition of RANKL-induced osteoclastogenesis by measuring osteoclasts number at 1 to 10 uM and measured after 5 days in presence of M-CSF by TRAP staining based assay. It counts as functional, cell-based. The following applies: dose 1-10 µM, time 5.0 day, DDE = dose-dependent effect.

The subject of data set [4] is BMDM. Put plainly: Cytotoxicity against C57BL/6 mouse bone marrow macrophages assessed as reduction in cell viability at 10 uM incubated for 48 hrs in presence of M-CSF by CCK8 assay. It counts as toxicity, cell-based. In general terms: Tetrazolium assays rely on reduction of a dye to a coloured formazan, in cell work by metabolically active cells.

For orientation: IC50 means the concentration that gives 50% inhibition. `CC(=O)OCCC(/C=C/C=C/C#CC#C/C=C/CO)OC(C)=O` (stereo not drawn): in data set [1], the IC50 was 1300 nM. Besides, the Activity entry in data set [2] was “Dde”; in data set [3] it was “Dde”; in data set [4], “Non-Toxic”.
For the compound `OC/C=C/C#CC#C/C=C/c1ccco1`, the IC50 in data set [1] was found to be 640 nM. For the same compound, the Activity result in data set [2] is “Dde”; in data set [3] it was “Dde”; in data set [4], “Non-Toxic”.
